Laboratory results reported in patent US6924252B1, “Weed control” (Aventis Agriculture Limited, priority 1999, dated 2005).

How the values were obtained:
Type in all cases: in vivo
[1] = tested on: Setaria viridis; assay: Glasshouse pot test, soil surface application, visual % reduction (Example 1); details: 14 DAT
Experimental: (§1) 7×7 cm^2 pots were filled with a non-sterile loam soil. Weed seeds (Amaranthus retroflexus, Echinochloa crus galli and Setaria viridis) were placed in three separate shallow wells with a maize seed (Pioneer 3394) inserted to a depth of 4 cm in between in each pot and the seeds lightly covered with soil. A 1 ml solution of technical isoxaflutole, suitably diluted to give a dose equivalent to 6.25, 12.5, 25, 50 and 100 g/ha in acetonitrile, was pipetted evenly on the soil surface of pots (replicated 10 times), according to the following regime. On day 1, a set of 5 pots were treated with 5 dose rates (6.25-100 g/ha) and set aside in the glasshouse. At the same time, on day 1 a second set of 4 pots were with 4 dose rates (treatment A. 6.25-50 g/ha) along with a third set of 3 pots treated with 3 dose rates (treatment B: 6.25-25 g/ha). On day 2 each of the second and third pots were treated again the pots receiving identical treatments A and B and second set of pots set aside in the glasshouse. On day 3 each of the third set of pots were treated again, the pots receiving identical treatment B. On day 4 each of the third set of pots were treated, the pots receiving identical treatment B and the pots set aside in the glasshouse. The pots were maintained in a glasshouse, with overhead watering (3×daily) and supplementary lighting. Visual assessment of % reduction, compared to untreated control plants was recorded 14 days after treatment. The results (average of 10 replicates) arm shown on Table 1, where the dosing regime refers to the number of daily applications followed by the dose of compound on each day.

[2] = tested on: Echinochloa crus galli; assay: as above; details: 14 DAT
Experimental: as §1

[3] = tested on: Amaranthus retroflexus; assay: as above; details: 14 DAT
Experimental: as §1

[4] = tested on: Setaria viridis; assay: Sequential soil surface application on plots (Example 5); details: 14 DAT
From the text: (§2) Maize is sown and grown up in an area where weeds and weed seedlings are present. The weeds are Amaranthus retroflexus, Echinochloa crus-galli and Setaria viridis. Solutions of isoxazole in acetonitrile were applied directly to the soil surface at dose rates of 100, 50 and 25 g/ha to plots A, B and C respectively. 1 DAT dose rates of 50 and 25 g/ha were applied to plots B and C respectively, 2 and 3 DAT a dose rate of 25 g/ha was applied to plot C.
(§3) Activity of the isoxazole on maize and weed species was observed 14 DAT.

[5] = tested on: Amaranthus retroflexus; assay: as above; details: 14 DAT
From the text: as §2, §3

[6] = tested on: Maize; assay: as above; details: 14 DAT
From the text: as §2, §3

[7] = tested on: Echinochloa crus-galli; assay: as above; details: 14 DAT
From the text: as §2, §3

[8] = tested on: Maize; assay: Activity on crop after spraying on sown maize (Example 3); details: 105 g/ha, observed after 3 weeks
From the text: (§4) Maize is sown and then grown up in area where weeds and weed seeds are present. The weeds are a selection from: Alopecurus myosuroides, Avena fatua, Digitaria sanguinalis, Echinochloa crus-galli, Eleusine indica, Lolium multiflorum, Setaria viridis, Sorghum halepense, Cyperus esculentus, Cyperus iria, Cyperus rotundus, Eleocharis acicularis, Abutilon theophrasti, Amaranthus retroflexus, Bidens pilosa, Chenopodium album, Galium aparine, Ipomgoea purpurea, Lamium purpureum, Matricaria inodora, Sesbania exalta, Sinapis arvensis, Solanum nigrum, Stellaria media, Veronica hederifolia, Veronica Persia, Viola arvensis and Xanthium strumarium.
After one week sowing the maize, isoxazole is sprayed as an encapsulated formulation as hereinbefore described at a rate of 105 g/ha of herbicidally active compound, the weight ratio of isoxazole: copolyester being 1:10. The amounts of isoxazole of formula (I) and DKN were measured after 4 days in a 5 cm deep soil core around the seed or seedling.
The activity of the isoxazole on the crop and weeds was observed after 3 weeks, and found to be equal to 2% and 95% respectively.

[9] = tested on: weeds; assay: Activity on weeds after spraying on sown maize (Example 3); details: 105 g/ha, observed after 3 weeks
From the text: as §4, with “[…],” for “exalta,”, “[…],” for “Persia,”, “strumarium. […] The amounts of isoxazole of formula (I) and DKN were measured after 4 days in a 5 cm deep soil core around the seed or seedling. The weight ratio of isoxazole: […]” for “strumarium.”

[10] = dosing regime 2 × 6.25 g/ha (daily applications × dose)

CS(=O)(=O)c1cc(C(F)(F)F)ccc1C(=O)c1cnoc1C1CC1 [isoxaflutole, 5-cyclopropyl-4-(2-methylsulphonyl-4-trifluoromethylbenzoyl)isoxazole]
% Damage Setvi ([1]; dosing regime 1 × 12.5 g/ha): 0%
% Damage Setvi ([1]; dosing regime 1 × 25 g/ha): 10%
% Damage Setvi ([1]; dosing regime 1 × 50 g/ha): 24%
% Damage Setvi ([1]; dosing regime 1 × 100 g/ha): 59%
% Damage Setvi [1, 10]: 18%
% Damage Setvi ([1]; dosing regime 2 × 12.5 g/ha): 42%
% Damage Setvi ([1]; dosing regime 2 × 25 g/ha): 44%
% Damage Setvi ([1]; dosing regime 2 × 50 g/ha): 66%
% Damage Setvi ([1]; dosing regime 4 × 6.25 g/ha): 75%
% Damage Setvi ([1]; dosing regime 4 × 12.5 g/ha): 91%
% Damage Setvi ([1]; dosing regime 4 × 25 g/ha): 77%
% Damage Echcg ([2]; dosing regime 1 × 12.5 g/ha): 0%
% Damage Echcg ([2]; dosing regime 1 × 25 g/ha): 32%
% Damage Echcg ([2]; dosing regime 1 × 50 g/ha): 84%
% Damage Echcg ([2]; dosing regime 1 × 100 g/ha): 94%
% Damage Echcg [2, 10]: 18%
% Damage Echcg ([2]; dosing regime 2 × 12.5 g/ha): 68%
% Damage Echcg ([2]; dosing regime 2 × 25 g/ha): 70%
% Damage Echcg ([2]; dosing regime 2 × 50 g/ha): 96%
% Damage Echcg ([2]; dosing regime 4 × 6.25 g/ha): 97%
% Damage Echcg ([2]; dosing regime 4 × 12.5 g/ha): 100%
% Damage Echcg ([2]; dosing regime 4 × 25 g/ha): 100%
% Damage Amare ([3]; dosing regime 1 × 12.5 g/ha): 0%
% Damage Amare ([3]; dosing regime 1 × 25 g/ha): 8%
% Damage Amare ([3]; dosing regime 1 × 50 g/ha): 50%
% Damage Amare ([3]; dosing regime 1 × 100 g/ha): 79%
% Damage Amare [3, 10]: 34%
% Damage Amare ([3]; dosing regime 2 × 12.5 g/ha): 46%
% Damage Amare ([3]; dosing regime 2 × 25 g/ha): 42%
% Damage Amare ([3]; dosing regime 2 × 50 g/ha): 78%
% Damage Amare ([3]; dosing regime 4 × 6.25 g/ha): 80%
% Damage Amare ([3]; dosing regime 4 × 12.5 g/ha): 79%
% Damage Amare ([3]; dosing regime 4 × 25 g/ha): 90%

CS(=O)(=O)c1cc(C(F)(F)F)ccc1C(=O)c1cnoc1C1CC1 [isoxazole]
Activity SETVI ([4]; dosing regime 1 × 100 g/ha): 59
Activity SETVI ([4]; dosing regime 2 × 50 g/ha): 66
Activity SETVI ([4]; dosing regime 4 × 25 g/ha): 77
Activity AMARE ([5]; dosing regime 1 × 100 g/ha): 79
Activity AMARE ([5]; dosing regime 2 × 50 g/ha): 78
Activity AMARE ([5]; dosing regime 4 × 25 g/ha): 90
Activity Maize ([6]; dosing regime 1 × 100 g/ha): 8
Activity Maize ([6]; dosing regime 2 × 50 g/ha): 10
Activity Maize ([6]; dosing regime 4 × 25 g/ha): 6
Activity ECHCG ([7]; dosing regime 1 × 100 g/ha): 94
Activity ECHCG ([7]; dosing regime 2 × 50 g/ha): 96
Activity ECHCG ([7]; dosing regime 4 × 25 g/ha): 100
activity of the isoxazole on the crop [8]: 15%
activity of the isoxazole on the weeds [9]: 95%
